Source: the NIST ThermoML archive (doi:10.1016/j.fluid.2010.08.004)

Experiment: mn = molality of the nth substance listed, in mol/kg
Settings: 101.3 kPa, Liquid; for speed of sound: Single path-length method; for mass density: Vibrating tube method

CCCCCCCn1cc[n+](C)c1.[Br-] [1-heptyl-3-methylimidazolium bromide] + O
Settings | mass density, 288.15 K [kg/m3] | mass density, 293.15 K [kg/m3] | mass density, 298.15 K [kg/m3] | mass density, 303.15 K [kg/m3] | mass density, 308.15 K [kg/m3] | speed of sound, 288.15 K [m/s] | speed of sound, 293.15 K [m/s] | speed of sound, 298.15 K [m/s] | speed of sound, 303.15 K [m/s] | speed of sound, 308.15 K [m/s]
m1 = 0.0096 | 999.568 | 998.662 | 997.491 | 996.083 | 994.457 | 1468.2 | 1484.2 | 1498.3 | 1510.5 | 1521.1
m1 = 0.0113 | 999.656 | 998.746 | 997.574 | 996.165 | 994.539 | 1468.5 | 1484.4 | 1498.5 | 1510.8 | 1521.3
m1 = 0.0151 | 999.839 | 998.926 | 997.75 | 996.337 | 994.708 | 1469.1 | 1485 | 1499 | 1511.2 | 1521.7
m1 = 0.0226 | 1000.2 | 999.279 | 998.097 | 996.677 | 995.043 | 1470.4 | 1486.1 | 1500.1 | 1512.2 | 1522.6
m1 = 0.0306 | 1000.59 | 999.656 | 998.464 | 997.04 | 995.398 | 1471.8 | 1487.3 | 1501.2 | 1513.1 | 1523.5
m1 = 0.0384 | 1000.96 | 1000.03 | 998.827 | 997.395 | 995.747 | 1472.9 | 1488.5 | 1502.2 | 1514.1 | 1524.4
m1 = 0.0571 | 1001.85 | 1000.9 | 999.682 | 998.23 | 996.569 | 1476.1 | 1491.2 | 1504.7 | 1516.3 | 1526.4
m1 = 0.0778 | 1002.84 | 1001.86 | 1000.62 | 999.158 | 997.477 | 1479.3 | 1494.3 | 1507.5 | 1518.9 | 1528.6
m1 = 0.097 | 1003.74 | 1002.74 | 1001.49 | 1000.01 | 998.309 | 1482.3 | 1497 | 1509.9 | 1521.1 | 1530.7
m1 = 0.1158 | 1004.62 | 1003.6 | 1002.33 | 1000.83 | 999.119 | 1485.2 | 1499.7 | 1512.3 | 1523.3 | 1532.6
m1 = 0.1383 | 1005.67 | 1004.63 | 1003.34 | 1001.81 | 1000.08 | 1488.7 | 1502.8 | 1515.2 | 1525.8 | 1534.9
m1 = 0.1566 | 1006.51 | 1005.45 | 1004.14 | 1002.6 | 1000.86 | 1491.5 | 1505.3 | 1517.4 | 1527.9 | 1536.7
m1 = 0.174 | 1007.32 | 1006.24 | 1004.91 | 1003.35 | 1001.6 | 1494 | 1507.6 | 1519.5 | 1529.8 | 1538.4
